# Test results taken from paper PMC7717600, “Novel [(N-alkyl-3-indolylmethylene)hydrazono]oxindoles arrest cell cycle and induce cell apoptosis by inhibiting CDK2 and Bcl-2: synthesis, biological evaluation and in silico studies” (Journal of Enzyme Inhibition and Medicinal Chemistry, 2020).
# Like-named read-outs stand apart in the source and are kept apart here.
# Assays:
# [1] = system: SF-295; conditions: for TGI: SF-295
# [2] = system: SNB-19; conditions: for TGI: SNB-19
# [3] = system: MALME-3M
# [4] = system: LOX IMVI; assay: NCI SRB screening; format: cell-based, human
# [5] = system: OVCAR-4
# [6] = system: SK-OV-3
# [7] = system: M14; assay: NCI SRB screening; format: cell-based
# [8] = system: SR
# [9] = system: A498; conditions: for TGI: A498
# [10] = system: HL-60(TB)
# [11] = system: CCRF-CEM
# [12] = system: SN12C
# [13] = system: SK-MEL-28; conditions: for TGI: SK-MEL-28
# [14] = system: T-47D
# [15] = system: SK-MEL-2; conditions: for TGI: SK-MEL-2
# [16] = system: UO-31
# [17] = system: SF-268; conditions: for TGI: SF-268
# [18] = system: DU-145; conditions: for TGI: DU-145
# [19] = system: 786-0; conditions: for TGI: 786-0
# [20] = system: SF-539; conditions: for TGI: SF-539
# [21] = system: IGROV1; conditions: for TGI: IGROV1
# [22] = SK-OV-3, listed as D - 795311 / 1
structure (smiles),measurement,setting,value
CCCn1cc(C=NN=C2C(=O)Nc3ccc(C)cc32)c2ccccc21 [Compound 8a],TGI,[1],96.6 µM
same,GI %,"[1]; SF-295, 10 μM",29%
same,Growth Percent,"[1]; SF-295, 1.00E-5 Molar",71.12%
same,TGI,[1]; listed as D - 795311 / 1,9.66E-5 Molar
same,TGI,[2],>100 µM
same,GI %,"[2]; SNB-19, 10 μM",37%
same,Growth Percent,"[2]; SNB-19, 1.00E-5 Molar",63.34%
same,TGI,[2]; listed as D - 795311 / 1,> 1.00E-4 Molar
same,TGI,[3],6.03 µM
same,GI %,[3]; 10 μM,49%
same,Growth Percent,[3]; 1.00E-5 Molar,51.68%
same,TGI,[3]; listed as D - 795311 / 1,6.03E-6 Molar
same,TGI,[4],3.06 µM
same,Growth Percent,[4]; 1.00E-5 Molar,4.42%
same,GI50,[4]; Homo sapiens,1.26 µM
same,TGI,[4]; listed as D - 795311 / 1,3.06E-6 Molar
same,GI50,[5]; OVCAR-4,0.93 µM
same,TGI,[5]; OVCAR-4,25.60 µM
same,GI %,"[5]; OVCAR-4, 10 μM",58%
same,Growth Percent,"[5]; OVCAR-4, 1.00E-5 Molar",41.83%
same,TGI,"[5]; OVCAR-4, listed as D - 795311 / 1",2.56E-5 Molar
same,TGI,[6]; SK-OV-3,67.10 µM
same,GI %,"[6]; SK-OV-3, 10 μM",12%
same,Growth Percent,"[6]; SK-OV-3, 1.00E-5 Molar",88.36%
same,GI50,[6]; [22],11.7 µM
same,TGI,[6]; [22],6.71E-5 Molar
same,GI50,"[7]; Homo sapiens, M14",1.92 µM
same,TGI,[7]; M14,4.70 µM
same,GI %,"[7]; M14, 10 μM",44%
same,Growth Percent,"[7]; M14, 1.00E-5 Molar",56.29%
same,TGI,"[7]; M14, listed as D - 795311 / 1",4.70E-6 Molar
same,GI50,[8],0.52 µM
same,TGI,[8],8.72 µM
same,GI %,[8]; 10 μM,89%
same,Growth Percent,[8]; 1.00E-5 Molar,11.60%
same,TGI,[8]; listed as D - 795311 / 1,8.72E-6 Molar
same,TGI,[9],7.50 µM
same,GI %,"[9]; A498, 10 μM",43%
same,Growth Percent,"[9]; A498, 1.00E-5 Molar",57.21%
same,TGI,[9]; listed as D - 795311 / 1,7.50E-6 Molar
same,TGI,[10]; HL60(TB),4.80 µM
same,TGI,[10]; HL-60(TB),4.80E-6 Molar
same,GI %,"[10]; HL-60(TB), 10 μM",123%
same,Growth Percent,"[10]; HL-60(TB), 1.00E-5 Molar",-22.61%
same,TGI,[11],>100 µM
same,GI %,[11]; 10 μM,101%
same,Growth Percent,[11]; 1.00E-5 Molar,-0.65%
same,TGI,[11]; listed as D - 795311 / 1,> 1.00E-4 Molar
same,TGI,[12],75.90 µM
same,GI %,[12]; 10 μM,51%
same,Growth Percent,[12]; 1.00E-5 Molar,49.93%
same,TGI,[12]; listed as D - 795311 / 1,7.59E-5 Molar
same,TGI,[13],36.9 µM
same,GI %,"[13]; SK-MEL-28, 10 μM",41%
same,Growth Percent,"[13]; SK-MEL-28, 1.00E-5 Molar",59.40%
same,TGI,[13]; listed as D - 795311 / 1,3.69E-5 Molar
same,GI50,[14],0.41 µM
same,TGI,[14],18.40 µM
same,GI %,[14]; 10 μM,61%
same,Growth Percent,[14]; 1.00E-5 Molar,39.59%
same,TGI,[14]; listed as D - 795311 / 1,1.84E-5 Molar
same,TGI,[15],8.03 µM
same,GI %,"[15]; SK-MEL-2, 10 μM",65%
same,Growth Percent,"[15]; SK-MEL-2, 1.00E-5 Molar",35.06%
same,TGI,[15]; listed as D - 795311 / 1,8.03E-6 Molar
same,GI %,"[16]; UO-31, 10 μM",40%
same,Growth Percent,"[16]; UO-31, 1.00E-5 Molar",60.00%
same,TGI,"[16]; UO-31, listed as D - 795311 / 1",6.18E-5 Molar
same,TGI,[17],28.0 µM
same,GI %,"[17]; SF-268, 10 μM",54%
same,Growth Percent,"[17]; SF-268, 1.00E-5 Molar",46.59%
same,TGI,[17]; listed as D - 795311 / 1,2.80E-5 Molar
same,TGI,[18],40.60 µM
same,GI %,"[18]; DU-145, 10 μM",34%
same,Growth Percent,"[18]; DU-145, 1.00E-5 Molar",66.43%
same,TGI,[18]; listed as D - 795311 / 1,4.06E-5 Molar
same,TGI,[19],71.20 µM
same,GI %,"[19]; 786-0, 10 μM",36%
same,Growth Percent,"[19]; 786-0, 1.00E-5 Molar",64.53%
same,TGI,[19]; listed as D - 795311 / 1,7.12E-5 Molar
same,TGI,[20],17.1 µM
same,GI %,"[20]; SF-539, 10 μM",66%
same,Growth Percent,"[20]; SF-539, 1.00E-5 Molar",33.94%
same,TGI,[20]; listed as D - 795311 / 1,1.71E-5 Molar
same,TGI,[21],63.10 µM
same,GI %,"[21]; IGROV1, 10 μM",61%
same,Growth Percent,"[21]; IGROV1, 1.00E-5 Molar",39.38%
same,TGI,[21]; listed as D - 795311 / 1,6.31E-5 Molar
